{
  "source": "patent US12394803B2",
  "about": "“Production method of catalyst, catalyst, production method of composition, composition, electrode, manufacturing method of electrode, fuel cell, metal-air battery” (Azul Energy Inc., priority 2019, dated 2025)",
  "origin": "cited, not measured here",
  "conditions": "background statement on Patent Document 1",
  "data": [
    {"compound": "[Fe+2].c1ccc2c(c1)-c1nc-2nc2[n-]c(nc3nc(nc4[n-]c(n1)c1ccccc41)-c1ccccc1-3)c1ccccc21", "note": "[Iron phthalocyanines, Iron phthalocyanine]", "values": [
      {"measurement": "Solubility in 2-propanol", "result": "low solubility"}
    ]}
  ]
}
